Assay results: US10202361B2, “Pyridazinones as herbicides” (E I DU PONT DE NEMOURS AND COMPANY, priority 2014, dated 2019)

How the values were obtained:
Assay type in all cases: in vivo
Settings in all cases: scale 0 to 100
[1] = test system: waterhemp_RES1 (ALS & Triazine resistant common waterhemp, Amaranthus rudis); test: Test E postemergence greenhouse herbicide test
Experimental: (§1) At the same time, plants from these crop and weed species and also waterhemp_RES1, (ALS & Triazine resistant common waterhemp, Amaranthus rudis), and waterhemp_RES2, (ALS & HPPD resistant common waterhemp, Amaranthus rudis) were planted in pots containing Redi-Earth® planting medium (Scotts Company, 14111 Scottslawn Road, Marysville, Ohio 43041) comprising spaghnum peat moss, vermiculite, wetting agent and starter nutrients were treated with postemergence applications of test chemicals formulated in the same manner. Plants ranged in height from 2 to 18 cm for postemergence treatments (1- to 4-leaf stage). Treated plants and controls were maintained in a greenhouse for 14 to 21 d, after which time all species were compared to controls and visually evaluated. Plant response ratings, summarized in Table E, are based on a scale of 0 to 100 where 0 is no effect and 100 is complete control. A dash (-) response means no test result.

[2] = test system: waterhemp_RES2 (ALS & HPPD resistant common waterhemp, Amaranthus rudis); test: Test E postemergence greenhouse herbicide test
Experimental: as §1

[3] = test system: smartweed (ladysthumb smartweed, Polygonum persicaria); test: Test E pre-/postemergence greenhouse herbicide test
Method in brief: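 Visual control ratings on a 0 to 100 scale (100 = complete control) were made 14 to 21 d after treatment, relative to untreated controls. Test chemicals, formulated with surfactant in a non-phytotoxic solvent, were applied to seeded silt loam soil (preemergence) and to 2 to 18 cm plants (postemergence).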

For COc1cc(=O)n(-c2ccc(C(F)(F)F)cc2)nc1Cc1ccnc(C(F)(F)F)c1 [Compound 16, 5-methoxy-2-[4-(trifluoromethyl)phenyl]-6-[[2-(trifluoromethyl)-4-pyridinyl]methyl]-3(2H)-pyridazinone], the “Plant response rating: Waterhemp_RES1” value ([1]; 62 g ai/ha) was 95, the “Plant response rating: Waterhemp_RES1” value ([1]; 125 g ai/ha) was 100 and the “Plant response rating: Waterhemp_RES1” value ([1]; 250 g ai/ha) was 100. For the same molecule, the “Plant response rating: Waterhemp_RES2” value ([2]; 62 g ai/ha) was 90, the “Plant response rating: Waterhemp_RES2” value ([2]; 125 g ai/ha) was 95 and the “Plant response rating: Waterhemp_RES2” value ([2]; 250 g ai/ha) was 100. The “Plant response rating: Smartweed” value ([3]; Postemergence, 62 g ai/ha) was 40, the “Plant response rating: Smartweed” value ([3]; Postemergence, 125 g ai/ha) was 70 and the “Plant response rating: Smartweed” value ([3]; Postemergence, 250 g ai/ha) was 70. For the same molecule, the “Plant response rating: Smartweed” value ([3]; Preemergence, 62 g ai/ha) was 98, the “Plant response rating: Smartweed” value ([3]; Preemergence, 125 g ai/ha) was 98 and the “Plant response rating: Smartweed” value ([3]; Preemergence, 250 g ai/ha) was 100.
